Results from patent US8008355B2, “Endosomolytic poly(vinyl ether) polymers” (Roche Madison Inc., priority 2002, dated 2011).

Experiments:
[1] = amines with electron withdrawing groups; cited from earlier work
[2] = Rate of cleavage of linkages; type: physicochemical

For `CCN(CCC#N)CCC#N` [C2H5N(CH2CH2CN)2], the pKa [1] is listed as 4.55.

For `N#CCN` [Polymer H2NCH2CN, H2NCH2CN], the pKa [1] is listed as 5.34.

In the case of `CC1CCC(=N)S1` (stereo not shown) [Linkage X, 5-methyl-2-iminothiolane], the “rate of cleavage, slower than an SMTP linkage (Compound XI)” value [2] is reported as 4 ×.

In the case of `CCN(CC)CCC#N` [(C2H5)2N(CH2)2CN], the pKa [1] is given as 7.65.
